Results on one compound are retold here after patent publication US20160075753A1, “MODULATION OF REGULATORY T CELL FUNCTION VIA PROTEIN KINASE C-eta” (LA JOLLA INSTITUTE FOR ALLERGY AND IMMUNOLOGY, priority 2013, published 2016).

The subject of the assay is interaction between CTLA-4 and PKCη. Description: CTLA-4 immunoprecipitation and immunoblotting for PKCη in cotransfected JTAg cells. It is filed as cell-based, human. The following applies: JTAg cells cotransfected with WT Ctla4 and Xpress-tagged WT PKCη; PP2 10 μM for 30 min before anti-CD3 mAbs + B7-Fc stimulation for 5 min; FIG. 12. The procedure:
WT Ctla4 were cotransfected with Xpress-tagged WT PKCη into JTAg cells. Cells were treated with vehicle (DMSO), PP2 (10 μM) or PP3 (10 μM) for 30 min prior to stimulation with anti-CD3 mAbs+B7-Fc recombinant protein for 5 min Cell lysates were immunoprecipitated with CTLA-4 mAb and then immunoblotted with the indicated Abs.
Simian virus 40 large T antigen-transfected human leukemic Jurkat T cells (JTAg) and MCC-specific hybridoma T cells were described previously. JTAg cells in logarithmic growth phase were transfected with plasmid DNAs by electroporation and incubated for 48 hours. Transfected cells were stimulated with OKT3 mAb and recombinant B7-Fc in the presence of cross-linking Ab for 5 min. Cell lysis in 1% digitonin lysis buffer (50 mM Tris-HCl, 50 mM NaCl, 5 mM EDTA), immunoprecipitation and Western blotting were carried out as previously described.
To map the important motif within the cytoplasmic tail of CTLA-4 that is used in the interaction with PKCη, the membrane proximal positively charged motif (K188, 191KKR193), the proline-rich motif (P205, 206, 209), and tyrosine residues (Y201 or Y218) were mutated, and the corresponding mutants examined for their ability to associate with PKCη. […] This positively charged motif is highly conserved throughout evolution from fish to primates (FIG. 10).
(In general: Immunoblotting shows a protein as a band on a membrane.)

For `CC(C)(C)n1nc(-c2ccc(Cl)cc2)c2c(N)ncnc21` [PP2], the “interaction between CTLA-4 and PKCη (co-immunoprecipitation)” value was “not affected”.
